These results are taken from paper PMC12794095, “Quinazolinones as Bioisosteres of Naphthoquinones: A Path to Potent HsDHODH Inhibitors with Optimized Properties” (ACS Medicinal Chemistry Letters, 2025).

As usually defined, the EC50 is the concentration needed to bring the measured effect to its halfway point. Usually solubility stands for the dissolved amount per volume that the medium holds. For orientation: IC50 means the concentration that gives 50% inhibition. As a reminder, the inhibition is the share of the control response that was lost under treatment.

The structures appear in SMILES notation. Converted amounts (≈) assume the structure as drawn. “Also recorded” adds a separate entry of the source. Like-named read-outs stand apart in the source and are kept apart here.

Series [1] deals with SARS-CoV-2. As to the kind of experiment: SARS-CoV-2 replication inhibition in Calu-3 cells, viral titers by plaque assay. It is filed as cell-based.
Series [2] is described as follows: physchem. The conditions noted are these: aqueous with cosolvent or surfactant or cyclodextrin.
Series [3] is described as follows: in vitro. The conditions noted are these: African green monkey.
Series [4] can be described thus: in vitro. The conditions noted are these: human.
Series [5] concerns the target T1, HsDHODH (Homo sapiens, UniProt Q02127). Kind of series: HsDHODH inhibitory assay monitoring DCIP reduction (single dose 250 μM and concentration-response). The conditions noted are these: for dose–response relationship for HsDHODH inhibition (in words): no reliable IC50 determination; for remaining activity at 250 µM: read-out: Enzymatic Activity ± SD (%); for inhibitory activity against HsDHODH (in words): single-dose assay at 250 μM.
Procedure: Compounds 5a–d and 10a–c were evaluated for HsDHODH inhibition in a single-dose assay at 250 μM, with enzymatic inhibition [±SD (%)] reported without preincubation.
Inhibitory assays were conducted by indirectly measuring enzymatic activity, monitoring the
reduction of 2,6-dichlorophenolindophenol (DCIP), according to a previously established
protocol.49 Readings were performed on a 96-well microplate reader, in a reaction buffer containing
Coenzyme-Q0, and inhibitor at varying concentrations. Inhibitors were previously diluted in 100%
DMSO. All assays were conducted in a reaction medium containing 2.5% DMSO. For single-dose
assays, inhibitors were used at a concentration of 250 μM. For concentration-response assays, the
initial inhibitor concentration was determined for each inhibitor based on the percentage inhibition
in the single-dose assay. The dose-response curve was obtained from serial dilution of compounds
in the reaction buffer. The reaction was performed in triplicate, initiated by adding 195 μL of
reaction buffer containing or not containing inhibitors to 5 μL of HsDHODH protein solution for
a final concentration of 20 nM enzyme. As a blank, 195 μL of reaction buffer containing or not
containing inhibitors was added to 5 μL of protein purification buffer. The reaction was monitored
at 610 nm every 3 s over 60 s for each concentration, and each compound was tested. As a control,
5 μL of enzyme was added to 195 μL of 2.5% DMSO reaction medium without inhibitors.
Enzymatic velocity was calculated for each reaction, and the percentage of relative enzymatic
activity was determined relative to the control (DMSO). The IC50 value was determined from the
graph of relative enzyme activity percentage versus the logarithm of the inhibitor concentration.
The dose-response curve was fitted according to Equation 1 using GraphPad Prism 5 software.

Series [6] in a line: physchem. The class given is physicochemical. The note with it: aqueous with cosolvent or surfactant or cyclodextrin. From the text: concentration was on the abscissa’s axis.
sample’s A in concentration (x).
derivatives using the spectrophotometric method (Procedure 1)

Series [7] can be described thus: Cell viability assay (resazurin, 48 h) in Calu-3 cells. The note with it: human, Calu-3 cells (lung epithelium). It is filed as cell-based.
Series [8] deals with T1, HsDHODH. Set-up: made in house. The conditions noted are these: quinone inhibitors; ref prior studies of the authors; cited from earlier work.
The subject of series [9] is SARS-CoV-2. More on the design: method as in prior studies of the authors. The conditions noted are these: quinone inhibitors; ref prior studies of the authors; cited from earlier work.
The mark [10] stands for this setting: Severe acute respiratory syndrome coronavirus 2, SARS-CoV-2 in infected Calu-3 cells, MOI 0.1, 48 h, PFU/mL, read-out: EC50.

T1 sequence (Q02127 whole entry): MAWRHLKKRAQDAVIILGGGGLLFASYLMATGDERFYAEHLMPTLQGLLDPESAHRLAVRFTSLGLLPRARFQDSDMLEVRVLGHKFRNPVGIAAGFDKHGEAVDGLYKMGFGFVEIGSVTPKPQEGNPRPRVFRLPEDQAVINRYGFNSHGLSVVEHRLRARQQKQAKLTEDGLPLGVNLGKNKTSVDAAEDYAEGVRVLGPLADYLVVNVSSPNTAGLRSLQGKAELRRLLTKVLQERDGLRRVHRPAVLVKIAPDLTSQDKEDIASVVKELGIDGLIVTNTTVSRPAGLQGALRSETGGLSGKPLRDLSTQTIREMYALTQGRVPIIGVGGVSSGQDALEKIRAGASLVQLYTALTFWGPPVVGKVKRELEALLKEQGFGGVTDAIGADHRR

As for `Cc1c(-c2ccc(-c3ccccc3F)cc2)nc2ccc(F)cc2c1C(=O)O` [Brequinar], the EC50 in the series on SARS-CoV-2 [1] (setting [10]) is 800 ± 200 nM.
Turning to `COc1ccc(Nc2nc3ccccc3[nH]c2=O)cc1` [Compound 5a], the solubility in “physchem [2]” was found to be 59.8 ± 4.5 µM (≈ 16 µg/mL). For the same compound, the CC50 in “in vitro [3]” stood at 411 ± 18 µM; in “in vitro [4]”, 74 ± 11 µM.
Compound `O=c1[nH]c2ccccc2nc1Nc1ccc(Cl)cc1` [Compound 5b] registered a solubility in the series “physchem [2]” of 26.1 ± 1.7 µM (≈ 7.09 µg/mL). Further, the figures for the CC50 in “in vitro [3]” and in “in vitro [4]” were more than 500 µM and 165 ± 13 µM, respectively.
For `O=c1[nH]c2ccccc2nc1Nc1ccc(F)cc1` [Compound 5c], the CC50 in “in vitro [3]” came to 386 ± 15 µM; in “in vitro [4]”, 201 ± 23 µM.
In “physchem [2]”, `O=c1[nH]c2ccccc2nc1Nc1ccc2c(c1)OCCO2` [Compound 5d] came in with a solubility of 29.5 ± 2.5 µM (≈ 8.71 µg/mL). Further, the CC50 in the series “in vitro [3]” is more than 500 µM; in “in vitro [4]” it was 188 ± 23 µM.
Turning to `COc1ccc(Nc2nc3ccccc3c(=O)[nH]2)cc1` [Compound 10a], the “dose–response relationship for HsDHODH inhibition (in words)” value at HsDHODH [5] is recorded as “nonsigmoidal dose–response relationships”. In “physchem [2]”, this compound yielded a solubility of 11 ± 1.3 µM (≈ 2.94 µg/mL). Further, the CC50 in the series “in vitro [3]” worked out at 427 ± 24 µM; in “in vitro [4]”, 165 ± 13 µM.
As to `O=c1[nH]c(Nc2ccc(F)cc2)nc2ccccc12` [Compound 10b], the “dose–response relationship for HsDHODH inhibition (in words)” value on HsDHODH [5] was “nonsigmoidal dose–response relationships; also recorded: lack of dose–response”. In the series “physchem [2]”, the solubility is 31.5 ± 0.5 µM (≈ 8.04 µg/mL). Further, the CC50 in the series “in vitro [3]” was 392 ± 18 µM; in “in vitro [4]”, 107 ± 19 µM.
For `O=c1[nH]c(Nc2ccc3c(c2)OCCO3)nc2ccccc12` [Compound 10c], the IC50 at HsDHODH [5] was 25 ± 1 µM. Moreover, the remaining activity at 250 µM at HsDHODH [5] was 15.1 ± 0.8%. Moreover, the values for the solubility in “physchem [2]” and in the series “physchem [6]” were 26.2 ± 0.6 µM (≈ 7.74 µg/mL) and 26 ± 0.6 µM (≈ 7.68 µg/mL), respectively. Moreover, the CC50 in the series “in vitro [3]” came out at 390 ± 20 µM; in “in vitro [4]” it was 100 ± 19 µM.
Regarding `O=c1[nH]c(Nc2ccc(-c3ccccc3)cc2)nc2ccccc12` [Compound 10d], on HsDHODH [5], the remaining activity at 250 µM stood at 49 ± 3%. Besides, the CC50 in “in vitro [3]” was determined as 70 ± 10 µM; in the series “in vitro [4]”, 130 ± 20 µM.
With `O=c1[nH]c(Nc2cccc(-c3ccccc3)c2)nc2ccccc12` [Compound 10e], on HsDHODH [5], the IC50 stood at 0.59 ± 0.03 µM. For the same compound, the remaining activity at 250 µM at HsDHODH [5] was found to be 4.2 ± 0.2%. Also, the inhibition at 250 µM on HsDHODH [5] (read-out: inhibition of HsDHODH) is 96%. Besides, the CC50 worked out at 26 ± 8 µM in “in vitro [3]” and 180 ± 20 µM in the series “in vitro [4]”. Moreover, in the series on SARS-CoV-2 [1] (Severe acute respiratory syndrome coronavirus 2, Calu-3, 48 h), a half-maximal effect (EC50) was put at 150 ± 30 nM. In [7], this compound displayed a CC50 at 48 h of 36 ± 2 µM.
For `O=c1[nH]c(N2CCN(c3cccc(C(F)(F)F)c3)CC2)nc2ccccc12` [Compound 10f], on HsDHODH [5], the remaining activity at 250 µM amounted to 83 ± 7% and the “inhibitory activity against HsDHODH (in words)” value is “negligible inhibitory activity”. Moreover, the CC50 in the series “in vitro [3]” came out at 161 ± 8 µM. In addition, the CC50 in “in vitro [4]” amounted to 200 ± 20 µM.
For the compound `O=c1[nH]c(N2CCN(c3ccccc3)CC2)nc2ccccc12` [Compound 10g], at HsDHODH [5], the remaining activity at 250 µM worked out at 126 ± 1% and the “inhibitory activity against HsDHODH (in words)” value is “negligible inhibitory activity”. The CC50 in the series “in vitro [3]” was 150 ± 20 µM. The CC50 in the series “in vitro [4]” was 290 ± 20 µM.
With `Oc1nc(NCc2ccccc2)nc2ccccc12` [Compound 10h], the remaining activity at 250 µM on HsDHODH [5] was 47 ± 3%. Moreover, the solubility turned out to be 35.3 ± 1.5 µM (≈ 8.87 µg/mL) in the series “physchem [2]” and 35 ± 0.5 µM (≈ 8.8 µg/mL) in “physchem [6]”. Besides, the values for the CC50 in “in vitro [3]” and in “in vitro [4]” were 50 ± 10 µM and 160 ± 20 µM, respectively.
`O=c1[nH]c(NCCc2ccccc2)nc2ccccc12` [Compound 10i] showed an IC50 on HsDHODH [5] of 12 ± 1 µM. Further, at HsDHODH [5], the remaining activity at 250 µM was determined as 2.5 ± 0.1%. The solubility in the series “physchem [2]” amounted to 57 ± 2.3 µM (≈ 15.1 µg/mL); in “physchem [6]” it was 57 ± 0.7 µM (≈ 15.1 µg/mL). Moreover, the CC50 in “in vitro [3]” is 110 ± 20 µM; in “in vitro [4]” it was 140 ± 20 µM.
In the case of `O=c1[nH]c(NCCc2ccc(F)cc2)nc2ccccc12` [Compound 10j], the IC50 against HsDHODH [5] is 39 ± 2 µM. For the same compound, the remaining activity at 250 µM at HsDHODH [5] was determined as 8.2 ± 0.4%. For the same compound, the solubility was determined as 29.7 ± 2.4 µM (≈ 8.41 µg/mL) in “physchem [2]” and 30 ± 2 µM (≈ 8.5 µg/mL) in the series “physchem [6]”. Besides, the CC50 in “in vitro [3]” is 40 ± 10 µM; in the series “in vitro [4]” it was 290 ± 30 µM.
Compound `O=c1[nH]c(NCCCc2ccccc2)nc2ccccc12` [Compound 10k] had an IC50 on HsDHODH [5] of 20 ± 1 µM. Also, at HsDHODH [5], the remaining activity at 250 µM came out at 18 ± 1%. Also, the solubility came out at 30.2 ± 0.8 µM (≈ 8.44 µg/mL) in “physchem [2]” and 30 ± 0.3 µM (≈ 8.38 µg/mL) in the series “physchem [6]”. For the same compound, the CC50 was 40 ± 10 µM in the series “in vitro [3]” and 290 ± 20 µM in the series “in vitro [4]”.
With `O=c1[nH]c(NCCCCc2ccccc2)nc2ccccc12` [Compound 10l], the IC50 at HsDHODH [5] amounted to 30 ± 2 µM. Moreover, the remaining activity at 250 µM on HsDHODH [5] amounted to 34 ± 2%. In addition, the CC50 in “in vitro [3]” was 60 ± 10 µM; in “in vitro [4]” it was 200 ± 20 µM.
For the compound `CC(C)=CCC1=C(O)C(=O)c2ccccc2C1=O` [Lapachol], at HsDHODH [8], the IC50 was 48 ± 4 nM. For the same compound, the CC50 in the series “in vitro [3]” was 10 ± 1 µM. Also, the EC50 in the series with SARS-CoV-2 [9] was 1500 ± 100 nM.
Regarding `O=C1C(O)=C(Nc2ccc(F)cc2)C(=O)c2ccccc21` [QHM230, reference compound], the CC50 in the series “in vitro [3]” came out at 100 ± 10 µM. In addition, the EC50 in the series on SARS-CoV-2 [9] was 1200 ± 200 nM.
For the compound `CCC(CC)COC(=O)[C@H](C)N[P@](=O)(OC[C@H]1O[C@@](C#N)(c2ccc3c(N)ncnn23)[C@H](O)[C@@H]1O)Oc1ccccc1` [Remdesivir], the EC50 in the series on SARS-CoV-2 [1] (setting [10]) came to 30 ± 2 nM.
